Here are results for 20 molecules from patent US8461328B2, “Tricyclic heterocyclic compounds, compositions and methods of use thereof” (Genentech, Inc., priority 2010, dated 2013).

Common to all, as to format: biochemical
One test deals with T1, TYK2 (Homo sapiens, UniProt P29597).
T1 construct: made in house; host or cells: SF9 insect cells (baculovirus)
T1 sequence (P29597 873-1187): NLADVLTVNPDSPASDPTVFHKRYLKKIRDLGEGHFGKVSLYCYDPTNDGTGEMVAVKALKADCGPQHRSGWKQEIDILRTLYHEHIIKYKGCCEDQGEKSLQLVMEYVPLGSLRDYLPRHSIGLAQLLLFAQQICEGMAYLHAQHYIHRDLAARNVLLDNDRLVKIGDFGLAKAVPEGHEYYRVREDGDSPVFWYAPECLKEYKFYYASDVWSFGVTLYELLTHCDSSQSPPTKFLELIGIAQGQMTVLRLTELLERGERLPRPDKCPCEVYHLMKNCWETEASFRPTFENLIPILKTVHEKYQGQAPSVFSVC
The experiment in a line: TYK2 inhibition (Table 4).

The target of another test is T2, JAK1 (Homo sapiens, UniProt P23458).
T2 construct: made in house; host or cells: SF9 insect cells (baculovirus)
The experiment in a line: JAK1 inhibition (Table 4). The note with it: read-out: JAK1 Ki.

The target of the next test is T3, JAK2 (Homo sapiens, UniProt O60674).
T3 construct: made in house; host or cells: SF9 insect cells (baculovirus)
The experiment in a line: JAK2 inhibition (Table 4). The note with it: read-out: JAK2 Ki.

The target in a further test is T4, JAK3 (Homo sapiens, UniProt P52333).
T4 construct: made in house; host or cells: SF9 insect cells (baculovirus)
Nature of the test: JAK3 inhibition (Table 4). The note with it: read-out: JAK3 Ki.

T4 sequence (P52333 783-1124): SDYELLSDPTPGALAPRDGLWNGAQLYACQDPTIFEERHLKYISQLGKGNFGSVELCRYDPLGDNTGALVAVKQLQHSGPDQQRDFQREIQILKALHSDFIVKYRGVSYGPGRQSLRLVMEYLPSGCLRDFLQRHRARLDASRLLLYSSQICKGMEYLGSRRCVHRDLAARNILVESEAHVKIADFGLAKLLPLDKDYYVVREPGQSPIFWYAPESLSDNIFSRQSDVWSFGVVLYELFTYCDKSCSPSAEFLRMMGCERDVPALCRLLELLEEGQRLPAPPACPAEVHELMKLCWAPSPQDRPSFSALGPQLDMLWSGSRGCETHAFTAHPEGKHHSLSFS
T3 sequence (O60674 812-1132): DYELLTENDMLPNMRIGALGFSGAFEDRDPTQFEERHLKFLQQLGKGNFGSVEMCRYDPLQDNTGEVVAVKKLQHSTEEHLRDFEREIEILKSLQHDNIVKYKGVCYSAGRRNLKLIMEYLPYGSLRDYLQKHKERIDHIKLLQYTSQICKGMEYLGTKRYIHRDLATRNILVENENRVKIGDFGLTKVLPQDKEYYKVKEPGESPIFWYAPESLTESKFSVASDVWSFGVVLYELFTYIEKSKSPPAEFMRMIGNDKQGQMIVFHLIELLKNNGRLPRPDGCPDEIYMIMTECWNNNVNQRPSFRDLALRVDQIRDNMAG
T2 sequence (P23458 852-1154): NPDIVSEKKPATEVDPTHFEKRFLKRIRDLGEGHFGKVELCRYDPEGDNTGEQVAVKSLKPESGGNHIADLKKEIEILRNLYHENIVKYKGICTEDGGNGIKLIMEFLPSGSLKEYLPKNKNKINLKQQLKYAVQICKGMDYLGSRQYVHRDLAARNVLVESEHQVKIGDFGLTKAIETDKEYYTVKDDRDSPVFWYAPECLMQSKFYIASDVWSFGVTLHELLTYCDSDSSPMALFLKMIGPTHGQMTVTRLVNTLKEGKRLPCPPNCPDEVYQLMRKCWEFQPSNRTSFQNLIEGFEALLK

The term Ki denotes the equilibrium dissociation constant of an inhibitor or competing ligand from its target. In the case of `O=C([C@@H]1CCCN1C1CCC1)N1CCC(n2cnc3cnc4[nH]ccc4c32)CC1` [Example 147, ((S)-1-Cyclobutyl-pyrrolidin-2-yl)-[4-(6H-1,2,3,5,6-tetraaza-as-indacen-1-yl)-piperidin-1-yl]-methanone], the inhibition constant (Ki) at TYK2 came to 1530 nM; at JAK1 it was 65.3 nM; at JAK2 it was 596 nM.

`CC(C)(C)OC(=O)N1CCC(n2c(C#N)nc3cnc4[nH]ccc4c32)CC1` [Example 169, 4-(2-Cyano-6H-1,2,3,5,6-tetraaza-as-indacen-1-yl)-piperidine-1-carboxylic acid tert-butyl ester]: the inhibition constant (Ki) at TYK2 was determined as 2930 nM; at JAK1 it was 292 nM; at JAK2 it was 186 nM.

Regarding `N#Cc1cccc(CC(=O)N2CC[C@@H](n3cnc4cnc5[nH]ccc5c43)C2)c1` [Example 189, 3-{2-oxo-2-[(R)-3-(6H-1,2,3,5,6-tetraaza-as-indacen-1-yl)-pyrrolidin-1-yl]-ethyl}-benzonitrile], the results for the Ki at TYK2, at JAK1 and on JAK2 were 1410 nM, 89.5 nM and 362 nM, respectively.

With `CN1CCN(CC(=O)N2CCC(n3cnc4cnc5[nH]ccc5c43)CC2)CC1` [Example 193, 2-(4-Methyl-piperazin-1-yl)-1-[4-(6H-1,2,3,5,6-tetraaza-as-indacen-1-yl)-piperidin-1-yl]-ethanone], the Ki at TYK2 amounted to 3150 nM; on JAK1, 111 nM; at JAK2, 697 nM.

As for `Cc1nc2cnc3[nH]ccc3c2n1C1CCN(C(=O)[C@@H]2CCCN2C)CC1` [Example 285], the Ki on TYK2 was 2410 nM; on JAK1 it was 51.8 nM; on JAK2 it was 402 nM.

Turning to `CN(C)CC(=O)N1CC[C@@H](n2cnc3cnc4[nH]ccc4c32)C1` [Example 429, 2-Dimethylamino-1-[(R)-3-(6H-1,3,5,6-tetraaza-as-indacen-1-yl)-pyrrolidin-1-yl]-ethanone], the Ki at TYK2 worked out at 2230 nM; at JAK1 it was 211 nM; at JAK2, 894 nM.

For `N#Cc1ccc(S(=O)(=O)N2CC[C@@H](n3cnc4cnc5[nH]ccc5c43)C2)cc1` [Example 433, 4-[(R)-3-(6H-1,3,5,6-Tetraaza-as-indacen-1-yl)-pyrrolidine-1-sulfonyl]-benzonitrile], the Ki on TYK2 is 293 nM; on JAK1, 22.4 nM; on JAK2, 87.6 nM.

Consider `Cc1nc(S(=O)(=O)N2CCC(n3cnc4cnc5[nH]ccc5c43)CC2)cn1C` [Example 444, 1-[1-(1,2-Dimethyl-1H-imidazole-4-sulfonyl)-piperidin-4-yl]-1,6-dihydro-1,3,5,6-tetraaza-as-indacene], for which the Ki at TYK2 is 3420 nM; on JAK1, 481 nM; on JAK2, 370 nM.

Regarding `CC(C)N1CCC(n2nnc3cnc4[nH]ccc4c32)CC1` [Example 548, 1-(1-Isopropyl-piperidin-4-yl)-1,6-dihydro-1,2,3,5,6-pentaaza-as-indacene], the figures for the Ki on TYK2, on JAK1 and at JAK2 were 2790 nM, 223 nM and 484 nM, respectively.

With `C[C@@H](O)c1nc2cnc3[nH]ccc3c2n1[C@@H]1CCCN(C(=O)Cn2ccnc2)C1` [Example 798, 1-{(R)-3-[2-((R)-1-Hydroxy-ethyl)-6H-1,3,5,6-tetraaza-as-indacen-1-yl]-piperidin-1-yl}-2-imidazol-1-yl-ethanone], the values for the Ki at JAK1, at JAK3 and at JAK2 were 69 nM, 897 nM and 2640 nM, respectively.

Regarding `CC(C)n1cc(CN2CCC(n3c([C@@H](C)O)nc4cnc5[nH]ccc5c43)CC2)cn1` [Example 824, (R)-1-{1-[1-(1-Isopropyl-1H-pyrazol-4-ylmethyl)-piperidin-4-yl]-1,6-dihydro-1,3,5,6-tetraaza-as-indacen-2-yl}-ethanol], the results for the Ki at JAK1, at JAK3 and on JAK2 were 24.5 nM, 600 nM and 1210 nM, respectively.

`Cc1nc(CN2CCC(n3c([C@@H](C)O)nc4cnc5[nH]ccc5c43)CC2)n(C)c1C` [Example 827, (R)-1-{1-[1-(1,4,5-Trimethyl-1H-imidazol-2-ylmethyl)-piperidin-4-yl]-1,6-dihydro-1,3,5,6-tetraaza-as-indacen-2-yl}-ethanol]: the Ki on JAK1 amounted to 73.9 nM; at JAK3 it was 1460 nM; at JAK2, 1720 nM.

For `Cc1nn(C)cc1CN1CCC(n2c([C@@H](C)O)nc3cnc4[nH]ccc4c32)CC1` [Example 828, (R)-1-{1-[1-(1,3-Dimethyl-1H-pyrazol-4-ylmethyl)-piperidin-4-yl]-1,6-dihydro-1,3,5,6-tetraaza-as-indacen-2-yl}-ethanol], the inhibition constant (Ki) at JAK1 was 90.5 nM; on JAK3, 949 nM; at JAK2, 1670 nM.

Consider `CCn1cc(CN2CCC(n3c([C@@H](C)O)nc4cnc5[nH]ccc5c43)CC2)c(C)n1` [Example 829, (R)-1-{1-[1-(1-Ethyl-3-methyl-1H-pyrazol-4-ylmethyl)-piperidin-4-yl]-1,6-dihydro-1,3,5,6-tetraaza-as-indacen-2-yl}-ethanol], for which the figures for the Ki on JAK1, at JAK3 and at JAK2 were 94.3 nM, 1320 nM and 939 nM, respectively.

As to `Cc1ncc(CN2CCC(n3c([C@@H](C)O)nc4cnc5[nH]ccc5c43)CC2)n1C` [Example 830, (R)-1-{1-[1-(2,3-Dimethyl-3H-imidazol-4-ylmethyl)-piperidin-4-yl]-1,6-dihydro-1,3,5,6-tetraaza-as-indacen-2-yl}-ethanol], the Ki on JAK1 was determined as 109 nM; at JAK3, 711 nM; on JAK2 it was 1730 nM.

In the case of `Cc1nn(C)c(C)c1CN1CCC(n2c([C@@H](C)O)nc3cnc4[nH]ccc4c32)CC1` [Example 831, (R)-1-{1-[1-(1,3,5-Trimethyl-1H-pyrazol-4-ylmethyl)-piperidin-4-yl]-1,6-dihydro-1,3,5,6-tetraaza-as-indacen-2-yl}-ethanol], the Ki at JAK1 stood at 309 nM; on JAK3 it was 1000 nM; on JAK2, 2680 nM.

`C[C@@H](O)c1nc2cnc3[nH]ccc3c2n1C1CCN(CC(=O)N2CCOCC2)CC1` [Example 870, 2-{4-[2-((R)-1-Hydroxy-ethyl)-6H-1,3,5,6-tetraaza-as-indacen-1-yl]-piperidin-1-yl}-1-morpholin-4-yl-ethanone]: the Ki on JAK1 stood at 267 nM; on JAK3, 1370 nM; on JAK2, 1440 nM.

For the molecule `C[C@@H](O)c1nc2cnc3[nH]ccc3c2n1C1CCN(CC(=O)N2CCCC2)CC1` [Example 872, 2-{4-[2-((R)-1-Hydroxy-ethyl)-6H-1,3,5,6-tetraaza-as-indacen-1-yl]-piperidin-1-yl}-1-pyrrolidin-1-yl-ethanone], the Ki came out at 164 nM on JAK1, 998 nM at JAK3 and 983 nM on JAK2.

As to `CCN1CCCC[C@H]1C(=O)N1CCC(n2cnc3cnc4[nH]ccc4c32)CC1` [Example 949, ((S)-1-Ethyl-piperidin-2-yl)-[4-(6H-1,3,5,6-tetraaza-as-indacen-1-yl)-piperidin-1-yl]-methanone], the Ki came to 1790 nM at TYK2, 44.1 nM on JAK1 and 515 nM on JAK2.

For the molecule `O=C([C@@H]1CCCCN1C1COC1)N1CCC(n2cnc3cnc4[nH]ccc4c32)CC1` [Example 951, ((S)-1-Oxetan-3-yl-piperidin-2-yl)-[4-(6H-1,3,5,6-tetraaza-as-indacen-1-yl)-piperidin-1-yl]-methanone], the Ki on TYK2 is 2880 nM; at JAK1 it was 141 nM; at JAK2, 480 nM.
